Assay results: publication PMC9500845, “New Anticancer Theobromine Derivative Targeting EGFR^WT and EGFR^T790M: Design, Semi-Synthesis, In Silico, and In Vitro Anticancer Studies” (Molecules, 2022)

Target: EGFR (Homo sapiens, UniProt P00533)
Assay: in vitro EGFR enzyme inhibition, Human EGFR ELISA kit
Type: biochemical

Sequence of EGFR (P00533 25-1210): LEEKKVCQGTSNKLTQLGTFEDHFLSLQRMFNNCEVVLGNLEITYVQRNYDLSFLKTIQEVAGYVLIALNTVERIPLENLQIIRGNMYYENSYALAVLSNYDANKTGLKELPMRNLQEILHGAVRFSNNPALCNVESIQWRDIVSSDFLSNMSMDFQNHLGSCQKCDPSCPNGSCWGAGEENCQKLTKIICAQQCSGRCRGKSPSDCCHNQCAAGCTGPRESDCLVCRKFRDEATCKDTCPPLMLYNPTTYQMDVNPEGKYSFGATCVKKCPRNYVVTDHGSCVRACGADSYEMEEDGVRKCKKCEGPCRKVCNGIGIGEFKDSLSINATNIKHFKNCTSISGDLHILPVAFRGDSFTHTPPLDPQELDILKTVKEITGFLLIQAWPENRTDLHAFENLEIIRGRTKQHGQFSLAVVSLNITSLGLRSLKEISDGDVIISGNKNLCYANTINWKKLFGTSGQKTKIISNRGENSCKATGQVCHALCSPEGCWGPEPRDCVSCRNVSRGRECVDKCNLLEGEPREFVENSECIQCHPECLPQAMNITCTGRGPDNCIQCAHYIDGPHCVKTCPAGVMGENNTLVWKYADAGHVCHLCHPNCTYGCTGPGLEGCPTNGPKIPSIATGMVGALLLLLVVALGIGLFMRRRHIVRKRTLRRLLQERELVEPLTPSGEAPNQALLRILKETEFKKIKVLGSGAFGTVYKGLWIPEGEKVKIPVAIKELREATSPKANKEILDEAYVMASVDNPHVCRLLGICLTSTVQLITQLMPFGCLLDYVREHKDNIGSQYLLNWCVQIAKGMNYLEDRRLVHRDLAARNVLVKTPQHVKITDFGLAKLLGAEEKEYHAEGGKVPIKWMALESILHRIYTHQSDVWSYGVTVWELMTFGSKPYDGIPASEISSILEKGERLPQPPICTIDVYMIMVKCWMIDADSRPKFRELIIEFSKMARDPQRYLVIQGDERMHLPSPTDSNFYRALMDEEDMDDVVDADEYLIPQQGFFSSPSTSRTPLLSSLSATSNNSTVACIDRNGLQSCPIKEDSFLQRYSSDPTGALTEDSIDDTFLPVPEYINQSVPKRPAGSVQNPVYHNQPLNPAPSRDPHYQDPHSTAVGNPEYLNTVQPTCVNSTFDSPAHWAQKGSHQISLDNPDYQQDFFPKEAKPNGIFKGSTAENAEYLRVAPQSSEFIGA

IC50: 17.2 nM
SMILES: Cn1cnc2c1c(=O)n(CC(=O)NCc1ccccc1)c(=O)n2C [XI, N-Benzyl-2-(3,7-dimethyl-2,6-dioxo-2,3,6,7-tetrahydro-1H-purin-1-yl)acetamide]
